Results as given in patent US20200384072A1, “THERAPY OF IONIZING RADIATION-INDUCED DISORDERS” (SCK-CEN, priority 2019, published 2020).

Legend:
[1] = tested on: TICAE cells; test: Intracellular ROS, CM-H2DCFDA IncuCyte live cell imaging, TICAE cells; type: cell-based, human; conditions: 100 μM TAT-Gap19, 0.1 and 5 Gy, 45 min p.i.
Procedure: In order to further assess intracellular ROS production, IncuCyte live cell imaging was used to have fast imaging in large number of replicates over multiple time points. TICAE and TIME cells were seeded in 96-well plate in 16 replicates at a density of 10000 cells/well. Three days later, cells reached 100% confluence. At 30 minutes before irradiation, a fresh MesoEndo Cell Growth Medium without phenol red (Sigma-Aldrich Co. LCC, Diegem, Belgium) supplemented with 10 μmol/L of the CM-H2DCFDA dye (Sigma-Aldrich Co. LCC, Diegem, Belgium) was added to the cells, with or without 100 μM TAT-Gap19 (Genosphere Biotechnologies, Paris, France). Fluorescence signals were measured at 45 min, 2 h and 3 h after irradiation (CM-H2DCFDA dye became saturated due to photoactivaton, and leaked outside the cells after this time) using the IncuCyte ZOOM® system (Essen BioScience, Ann Arbor, Mich., USA), 10× objective and FITC filter. […] Images were analysed making use of the software package provided by the manufacturer; we used a training set of images from different doses to define the image processing procedure. The so called Top-Hat background subtraction method was applied by measuring the radius of the fluorescence object (30 μm), and adjust a threshold of 1.5 (above the local background fluorescent intensity level), as described in IncuCyte™ Background Fluorescence Technical Note. […]

[2] = tested on: TIME cells; test: Cytokine detection (Magnetic Luminex) in supernatant after irradiation, TIME cells; type: cell-based, human
Procedure: TICAE and TIME cells were seeded in a 6-well plate at a density of 2.5×10^5 cells/well in 5 to 6 biological replicates. Two to three days later, cells reached 100% confluence. At 30 minutes before X-ray exposure, cells were refreshed with medium with or without 100 μM TAT-Gap19 (Genosphere Biotechnologies, Paris, France). At 24 h, 48 h, 72 h and 7 d after irradiation, the supernatant was collected. Medium was changed only for the 7 d time point experiment at the fourth day with fresh medium alone or with medium supplemented with 100 μM TAT-Gap19. For the simultaneous detection of multiple cytokines in the supernatants, the Magnetic Luminex® Assay (R&D systems, Minneapolis, […]) was used following manufacturer's instructions. Briefly, supernatants, standards and microparticles were incubated into a 96-well plate which was pre-coated with cytokine-specific antibodies. The immobilized antibodies were able to bind the cytokines of interest after 2 h incubation, then the plate was washed and incubation with a biotinylated antibody cocktail specific to the cytokines of interest was performed for 1 h. A second wash was performed to remove the unbound biotinylated antibodies. Further, a streptavidin-phycoerythrin conjugate was added to each well to bind to the biotinylated antibodies. After a final wash, the microparticles were resuspended in buffer and read using the Luminex® MAGPIX Analyzer (R&D systems, Minneapolis, […]).
In order to normalize to cell number, DAPI staining was performed for the 48 h after irradiation time point. Briefly, cells were washed with phosphate buffered saline (PBS) and fixed with 4% paraformaldehyde (PFA) for 15 minutes at room temperature. Afterwards, the cells were washed with PBS and stained with 1 μg/mL 4′,6-Diamidine-2′-phenylindole (DAPI) dissolved in 1×TBST, 0.005 g/v % TSA blocking powder (PerkinElmer, FP1012) (TNB). After one hour, cells were washed with PBS and DAPI signals were visualized with the Nikon Eclipse Ti automated inverted wide-field epifluorescence microscope equipped with a 5× magnification (Plan Fluor, numerical aperture 0.6) dry objective and a Nikon IE2000-E camera controlled by the MS Elements software. The intensity of the DAPI signals was determined with the FIJI software. Cell count for 24 h after irradiation experiment was performed by Moxi Z Mini Automated Cell Counter (ORFLO Technologies, Ketchum, Id., USA) after trypsinization. For the 72 h and 7 d post-irradiation cell counts, we used IncuCyte ZOOM™ phase contrast imaging based on 49 images taken per well with the 10× objective.

[3] = biological target: hemichannels composed of Cx43 (Homo sapiens, UniProt P17302); conditions: cited from earlier work
Chain of hemichannels composed of Cx43 (P17302 whole entry): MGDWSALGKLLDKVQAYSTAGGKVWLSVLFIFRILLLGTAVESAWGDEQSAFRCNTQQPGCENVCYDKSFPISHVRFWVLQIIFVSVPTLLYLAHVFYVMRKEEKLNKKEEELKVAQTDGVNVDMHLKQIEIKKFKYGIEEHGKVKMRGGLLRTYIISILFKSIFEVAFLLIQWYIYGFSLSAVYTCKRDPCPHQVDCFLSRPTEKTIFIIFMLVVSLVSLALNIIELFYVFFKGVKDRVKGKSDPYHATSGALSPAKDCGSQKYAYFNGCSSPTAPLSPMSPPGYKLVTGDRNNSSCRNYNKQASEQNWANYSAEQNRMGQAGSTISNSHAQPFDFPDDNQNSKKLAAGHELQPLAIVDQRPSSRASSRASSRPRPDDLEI

[4] = tested on: TIME cells; test: DNA damage, gamma H2AX and TP53BP1 foci, TIME cells; type: cell-based, human; conditions: 100 μM TAT-Gap19, 0.1 and 5 Gy, 1 h p.i.
Procedure: To detect DNA double strand breaks after IR, TICAE and TIME cells were seeded in Nunc™ Lab-Tek™ Chamber Slide (Thermo Fisher Scientific, Asse, Belgium) in 8 replicates, at seeding density of 50 000 cells/well. Two days later, cells reached 100% confluence. At 30 min before IR, a fresh medium was added to the cells with or without 100 μM TAT-Gap19. At 1 h post irradiation, cells were fixed with 2% PFA (Sigma-Aldrich Co. LCC, Diegem, Belgium) and permeabilized with 0.25% Triton X-100 (Sigma-Aldrich Co. LCC, Diegem, Belgium) in PBS. Cells were blocked for 1 h in 1% normal goat serum (Thermo Fisher Scientific, Asse, Belgium) in Tris-NaCl (Perkin Elmer, Brussels, Belgium). Thereafter, staining with 1/300 primary anti-gamma H2AX antibody (Merck-Millipore #05-636) and 1/1000 anti-TP53BP1 antibody (Novus Biologicals #NB100-304) was performed for 1 h at 37° C. After washing 3 times with PBS, secondary Alexa Fluor 488 and 568 antibodies (Life Technologies, Merelbeke, Belgium) were applied for 1 h at 37° C. Finally, the slides were mounted using ProLong Diamond Antifade Mountant with DAPI (Life Technologies, Merelbeke, Belgium), and cells were visualized with an Eclipse Ti automated inverted wide-field epifluorescence microscope (Nikon, Brussels, Belgium) equipped with a 20×Plan Fluor objective (NA 0.6) and an Andor Ixon EMCCD camera, controlled by the MS Elements software. […]

TAT-Gap19: connexin mimetic peptide, amino-acids 128-136 of the CL of Cx43 (SEQ ID NO: 2), Gap19 linked to TAT sequence; Cx43 hemichannel inhibitor (YGRKKRRQRRRKQIEIKKFK)
ROS production (IncuCyte) [1]: significantly reduced ROS production at both doses | E-selectin readout ([2]; 100 μM TAT-Gap19, 0.1 Gy): decreased | IL-6 readout ([2]; 100 μM TAT-Gap19, 0.1 Gy): decreased | IL-8 readout ([2]; 100 μM TAT-Gap19, 0.1 Gy): decreased | PECAM-1 readout ([2]; 100 μM TAT-Gap19, 0.1 Gy): decreased | TNF-α readout ([2]; 100 μM TAT-Gap19, 0.1 Gy): decreased | VCAM-1 readout ([2]; 100 μM TAT-Gap19, 0.1 Gy): decreased | CRP (radiation-induced increase) ([2]; 100 μM TAT-Gap19, 5 Gy, 24 h): significantly reduced the increase | E-Selectin (radiation-induced increase) ([2]; 100 μM TAT-Gap19, 5 Gy, 24 h): significantly reduced the increase | ICAM-1 (radiation-induced increase) ([2]; 100 μM TAT-Gap19, 5 Gy, 24 h): significantly reduced the increase | IL-1B (radiation-induced increase) ([2]; 100 μM TAT-Gap19, 5 Gy, 24 h): significantly reduced the increase | MCP-1 (radiation-induced increase) ([2]; 100 μM TAT-Gap19, 5 Gy, 24 h): significantly reduced the increase | PECAM-1 (radiation-induced increase) ([2]; 100 μM TAT-Gap19, 5 Gy, 24 h): significantly reduced the increase | TNF-α (radiation-induced increase) ([2]; 100 μM TAT-Gap19, 5 Gy, 24 h): significantly reduced the increase | IL-6 (radiation-induced increase) ([2]; 100 μM TAT-Gap19, 5 Gy, 24 h, 48 h and 7 d p.i.): significantly reduced these responses | Endothelin-1 (radiation-induced increase) ([2]; 100 μM TAT-Gap19, 5 Gy, 24 h, 72 h and 7 d p.i.): significantly decreased these responses | VCAM-1 (radiation-induced increase) ([2]; 100 μM TAT-Gap19, 5 Gy, 24 h and 7 d p.i.): significantly reduced these responses | IL-8 levels ([2]; 100 μM TAT-Gap19, 5 Gy, 7 d p.i.): significantly decreased IL-8 levels | Endothelin-1 readout ([2]; 100 μM TAT-Gap19, control and 0.1 Gy): decreased | IL-6 readout ([2]; 100 μM TAT-Gap19, control and 0.1 Gy, 7 d p.i.): increased | half-time of Cx43 hemichannel block [3]: 100 s | gamma H2AX, TP53BP1 and colocalized foci (radiation-induced DNA damage) [4]: not affected
